Assay results published in PMC5304334, “Antifouling potential of Nature-inspired sulfated compounds” (Scientific Reports, 2017).
pEC50: −log10 of the molar value. “Also recorded” adds a separate entry of the source. Read-outs that look alike come from different tables or passages of the source.

Columns and labels:
Vibrio harveyi CECT 525 = assay: Antibacterial growth inhibition, Vibrio harveyi; type: cell-based; conditions: V. harveyi
Experimental: (§1) Antibacterial activities were evaluated against four strains of marine biofilm-forming bacteria Cobetia marina CECT 4278, Vibrio harveyi CECT 525, Halomonas aquamarina CECT 5000, and Pseudoalteromonas atlantica CECT 570, all from Spanish Type Culture Collection (CECT). The bacteria were inoculated and incubated for 24 h at 26 °C in marine broth (Difco) at an initial density of 0.1 (OD600) in 96 well flat-bottom microtiter plates. Sulfated compounds stock solutions were prepared in ultra-pure water. […] Bacterial growth inhibition in the presence of the test compounds was measured in quadriplicate by reading of optical density at 600 nm using a microplate reader (Biotek Synergy HT, Vermont, USA). Marine broth with ultra-pure water and penicilin-streptomycin-neomycin stabilized solution were used as negative (B) and positive (C) controls, respectively.
(§2) For the determination of maximal inhibitory concentrations (IC) a serial dilution of the stock solution was used to obtain final concentrations from 100 μM to 0.75 μM, the same range applied in antifouling bioassays plus one lower concentration, and the same procedure was applied.
Data from the anti-settlement and antibacterial screenings were analyzed using a one-way analysis of variance (ANOVA) followed by a Dunnett test against the control (p < 0.05). […]

[1] = test system: Halomonas aquamarina CECT 5000; assay: Antibacterial growth inhibition, Halomonas aquamarina; type: cell-based; conditions: H. aquamarina
Experimental: as §1, §2
(§3) Data from the anti-settlement and antibacterial screenings were analyzed using a one-way analysis of variance (ANOVA) followed by a Dunnett test against the control (p < 0.05). Semi-maximum response concentration that inhibited 50% larval settlement (EC50), semi-maximum response concentration that inhibited 20% bacterial growth (EC20) and the median lethal dose (LC50) for each bioactive compound were assessed using Probit regression analysis. Pearson Goodness-of-fit (Chi-Square) significance was considered at p < 0.05 for all analyses, and 95% lower and upper confidence limits [95% LCL; UCL] were presented. Therapeutic ratio (LC50/EC50) was used to evaluate the effectiveness vs toxicity of compounds[31][53][54]. The software IBM SPSS Statistics 21 was used for statistical analysis.

[2] = test system: Mytilus galloprovincialis plantigrades; assay: Anti-settlement bioassay with mussel plantigrades (effectiveness and mortality); type: in vivo; conditions: for Anti-settlement activity in screening (result in words): 250 and 50 μM, p < 0.05 Dunnett; for Anti-settlement activity in screening (result in words) / Concentration range with significant anti-settlement activity: versus negative control; for pEC50 / EC50: Mytilus galloprovincialis, read-out: EC50, minimum concentration that inhibited 50% of larval settlement; for pEC50: 1.56–500 μM; for Concentration range with significant anti-settlement activity: concentration-response 1.56–500 μM
Experimental: (§4) M. galloprovincialis juvenile (0.5 cm shell length approximately) aggregates were collected from mussel beds from the intertidal rocky shore, during low neap tides at Memória beach, Matosinhos, Portugal (41°13′59″N; 8°43′28″W), and immediately transported to the laboratory. M. galloprovincialis plantigrade post-larvae (0.5–2 mm) were screened among the small mussel aggregates in a binocular magnifier (Olympus SZX2-ILLT), gently washed with filtered seawater to remove organic debris and sand particles and isolated in a petri dish with filtered seawater immediately before the bioassays.
(§5) For the screening bioassay, competent M. galloprovincialis plantigrades (showing exploring behavior, ie, moving their foot searching for the appropriate substrate to settle) were selected and exposed to the series of sulfated compounds 1–13 at two concentrations (250 and 50 μM) in 24-well microplates for 15 h, at 18 ± 1 °C, in the darkness. Bioassays time frame was selected based on preliminary bioassays to ensure that the response measured is reflecting the compounds effect. Test solutions were prepared in filtered seawater (previously treated by UV light, and carbon filters and mechanically filtered with […] filter before use) and obtained by dilution of the compounds stock solutions (50 mM) in ultra-pure water. Four well replicates were used per condition with five plantigrades per well and 2.5 mL of test solution. A negative control, with ultra-pure water was included in all bioassays, as well as a positive control with 5 μM CuSO4 (a potent AF agent). At the end of the exposure period, the anti-settlement activity was determined by the presence/absence of byssal threads produced by each individual efficiently attached for all the conditions tested.
as §3

[3] = Luminescent Vibrio fischeri ecotoxicity assay (ISO11348); type: cell-based; conditions: Vibrio fischeri; read-out: LC50 Vibrio fischeri
Experimental: (§6) After 5, 15 and 30 min of exposure, the light emitted as a by-product of Vibrio fischeri cellular respiration was measured at 490 nm. Any inhibition of cellular activity results in a decreased rate of respiration and a corresponding decrease in the rate of luminescence. The decrease of bacterial luminescence measured after 5, 15 or 30 min of exposition was used as test endpoint. Luminescence was measured using a LUMIStox photometer from DR LANGE, after a contact time of 15 min and 30 min at 15 ± 1 °C, taking into account a correction factor, fk, which is a measure of intensity change of control samples during the exposure time.
(§7) The pH of all samples was within the interval 6.0–8.5.

[4] = test system: Vibrio fischeri (NRRL-B-11177); assay: as above; type: cell-based; conditions: for Inhibition of light radiation emitted by V. fischeri: 15 min or 30 min contact, up to 1000 mg/L; for EC50: Aliivibrio fischeri, V. fischeri luminescence
Experimental: as §6, §7

Artemia salina nauplii = Artemia salina nauplii lethality (ecotoxicity) test; type: in vivo; conditions: for Mortality of Artemia salina: 250 μM; for Mortality of A. salina nauplii / Toxicity to A. salina: 25, 50, and 250 μM, 48 h; for Toxicity to A. salina: versus negative control
Experimental: Selected sulfated compounds with AF potential 2, 6, and 12 were tested for general toxicity to nontarget species using the brine shrimp (Artemia salina) nauplii lethality test[51]. Briefly, A. salina eggs were allowed to hatch in nutrient–enriched seawater as nauplii for approximately 48 h at 25 °C. Toxicity tests were performed in the darkness in 96-wells microplates with eight replicates per condition and 15–20 nauplii per well. Serial diluted test solutions of the most promising sulfated AF compounds (25, 50, and 250 μM) were prepared in filtered seawater. K2Cr2O7 (13.6 μM) was included as positive control and ultra-pure water as negative control. Percentage of mortality was determined at 48 h of exposure.

[5] = Water solubility (statement in discussion); type: physicochemical
[6] = target: T1, Electrophorus electric acetylcholinesterase Type V-S (Electrophorus electricus, UniProt O42275); assay: In vitro acetylcholinesterase activity (Ellman); type: biochemical; conditions: 50 μM compound
T1 construct: purchased SIGMA C2888
T1 sequence (O42275 24-633): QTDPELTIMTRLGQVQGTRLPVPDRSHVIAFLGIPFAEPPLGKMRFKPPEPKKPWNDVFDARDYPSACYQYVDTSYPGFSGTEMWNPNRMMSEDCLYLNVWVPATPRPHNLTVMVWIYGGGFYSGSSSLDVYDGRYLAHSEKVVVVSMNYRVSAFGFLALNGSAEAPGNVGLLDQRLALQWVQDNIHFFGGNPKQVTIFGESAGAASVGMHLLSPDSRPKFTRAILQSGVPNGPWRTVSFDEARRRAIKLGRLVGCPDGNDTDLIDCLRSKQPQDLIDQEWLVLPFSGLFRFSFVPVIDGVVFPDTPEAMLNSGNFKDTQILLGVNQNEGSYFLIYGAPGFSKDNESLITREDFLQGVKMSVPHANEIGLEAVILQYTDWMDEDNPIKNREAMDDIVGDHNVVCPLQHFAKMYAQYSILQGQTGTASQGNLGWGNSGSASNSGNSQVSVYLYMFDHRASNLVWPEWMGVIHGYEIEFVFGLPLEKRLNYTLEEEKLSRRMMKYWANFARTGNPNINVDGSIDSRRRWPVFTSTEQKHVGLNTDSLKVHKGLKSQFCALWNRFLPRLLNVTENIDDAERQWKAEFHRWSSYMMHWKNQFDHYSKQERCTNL
Experimental: The potential of compounds 2, 6 and 12 to inhibit acetylcholinesterases activity was evaluated using Electrophorus electric acetylcholinesterase Type V-S (SIGMA C2888, E.C. 3.1.1.7), according to Ellman et al.[47] with some modifications. Briefly, reaction solution containing phosphate buffer 1 M pH 7.2, dithiobisnitrobenzoate (DTNB) 10 mM (acid dithiobisnitrobenzoate and sodium hydrogen carbonate in phosphate buffer) and […] 0.075 M was added to pure acetylcholinesterase enzyme (0.25 U/mL) and each test sulfated compound (final concentration of 50 μM) in quadruplicate. The optical density was measured at 412 nm in a microplate reader during 5 min at 25 °C. A negative control (B) with ultra-pure water and a positive control (C+) with 20 mM eserine also included.

[7] = test system: Agaricus bisporus tyrosinase; assay: In vitro tyrosinase inhibition assay; type: biochemical; conditions: 50 μM compound
Experimental: Tyrosinase inhibition assays were conducted using Agaricus bisporus tyrosinase (EC 1.14.18.1) according to Adhikari et al.[50] with slight modifications. The enzymatic reaction follows the catalytic conversion of L-Dopa to dopaquinone and the formation of dopachrome by measuring the absorvance at 475 nm. Briefly, tyrosinase (25 U/mL) is added to 50 mM fosfate buffer pH 6.5 and the sulfated compound at 50 μM. The enzymatic activity was triggered by the addition of L-dopa (25 mM). Kojic acid was included as positive control and ultra-pure water as negative control.

[8] = Seawater stability under AF assay conditions (HPLC-DAD); type: physicochemical; conditions: 250 μM in filtered seawater, 15 h, 18 °C
Experimental: High performance liquid chromatography with Diode-Array Detection (HPLC-DAD) analyses were carried out on a System SMI Pump Series II (Gloucester, UK) equipped with a Rheodyne 7125 injector fitted with a 20 μL loop, a TSP-UV6000LP detector, and a Chromquest for Windows NT integrator and using a C-18 Nucleosil column (5 μm, 250 × 4.6 mm I.D.), from Macherey-Nagel (Düren, Germany); acetonitrile was of HPLC grade from Merck. HPLC ultrapure water was generated by a Milli-Q system (Millipore, Bedford, MA, USA). The mobile phase used was water with tetrabutylammonium bromide (TBAB, 25 mM) and acetonitrile (38:62) at a constant flow rate of 1.0 mL.min^−1. The mobile phase was filtered ([…]) and degassed for 15 min in an ultrasonic bath before use.
The seawater stability of the three most promising compounds 2, 6, and 12 in the time period (15 h) and temperature (18 °C) of the AF assay was evaluated by HPLC-DAD. Compounds were analyzed at 250 μM (final concentration) in filtered seawater ([…]). Incubations were performed in glass HPLC vials and three independent samples plus respective blank (filtered seawater) and controls (time zero - freshly prepared solutions of compounds) were analyzed.

[9] = Anti-settlement bioassay with mussel plantigrades (effectiveness and mortality); type: in vivo, Mytilus galloprovincialis; conditions: Mytilus galloprovincialis, in vivo, other: immersion in test solution in filtered seawater; mortality of plantigrades, 15 h, up to 500 μM; read-out: LC50, the median lethal dose
Experimental: as §4, §5, §3

[10] = NRRLB11177, 0.25 h, 15 min contact, read-out: EC50 15min
[11] = NRRLB11177, 0.5 h, 30 min contact, read-out: EC50 30min
[12] = 15 h, plantigrades, 15 h, 18 °C

| Compound | Anti-settlement activity in screening (result in words) ([2]; 15 h) | CC50 [3] | Inhibition of light radiation emitted by V. fischeri [4] | EC50 [4, 10] | EC50 [4, 11] | Mortality of Artemia salina (Artemia salina nauplii) | Mortality of A. salina nauplii (Artemia salina nauplii) | Toxicity to A. salina (Artemia salina nauplii) | Water solubility [5] | Acetylcholinesterase activity inhibition [6] | Tyrosinase activity inhibition [7] | Concentration detected relative to the initial one (seawater stability) [8] | pEC50 [2, 12] | EC50 [2, 12] | Concentration range with significant anti-settlement activity [2] | LC50 at 15 h [9] | further results |
| --- | --- | --- | --- | --- | --- | --- | --- | --- | --- | --- | --- | --- | --- | --- | --- | --- | --- |
| O=c1c(O[C@@H]2O[C@H](COS(=O)(=O)O)[C@@H](OS(=O)(=O)O)[C@H](OS(=O)(=O)O)[C@H]2OS(=O)(=O)O)c(-c2ccccc2)oc2cc(O[C@@H]3O[C@H](COS(=O)(=O)O)[C@@H](OS(=O)(=O)O)[C@H](OS(=O)(=O)O)[C@H]3OS(=O)(=O)O)ccc12 [Compound 4, 3,7-di(β-D-glucopyranosyl)flavone persulfate] | did not show notable activity | – | – | – | – | – | – | – | – | – | – | – | – | – | – | – | EC20, minimum concentration that inhibited 20% of bacterial growth (Vibrio harveyi CECT 525): >100 µM; Bacterial growth inhibition in screening ([1]; 12.5 μM, 24 h, 26 °C): significant inhibitory activity; Bacterial growth inhibition at all the concentrations tested ([1]; 0.75–100 μM): less than 30%; inhibition at 12.5 µM ([1]; Vreelandella aquamarina, CECT5000, 12.5 μM): 15.3%; inhibition at 100 µM ([1]; Vreelandella aquamarina, CECT5000, 100 μM): 26.5% |
| O=c1c2ccc(O[C@@H]3O[C@H](COS(=O)(=O)O)[C@@H](OS(=O)(=O)O)[C@H](OS(=O)(=O)O)[C@H]3OS(=O)(=O)O)cc2oc2cc(O[C@@H]3O[C@H](COS(=O)(=O)O)[C@@H](OS(=O)(=O)O)[C@H](OS(=O)(=O)O)[C@H]3OS(=O)(=O)O)ccc12 [Compound 6] | significant anti-settlement responses at 50 μM; also recorded: highly active | > 1000 µg/mL | no inhibition of light radiation emitted was found; also recorded: lack of light radiation inhibition | > 1000 µg/mL | > 1000 µg/mL | < 10% | less than 10% | no toxicity | highly water soluble | not inhibited | not inhibited | at least 95% | 4.63 | 31.7 µg/mL | 25 to 500 µM | > 500 µM | – |
| O=C(O)c1cc(OS(=O)(=O)O)c(OS(=O)(=O)O)c(OS(=O)(=O)O)c1 [Compound 12, gallic acid persulfate] | significant anti-settlement responses at 50 μM | > 1000 µg/mL | no inhibition of light radiation emitted was found; also recorded: lack of light radiation inhibition | > 1000 µg/mL | > 1000 µg/mL | < 10% | less than 10% | no toxicity | highly water soluble | not inhibited | not inhibited | at least 95% | 4.75 | 8.95 µg/mL | 12.5 to 500 µM | > 500 µM | EC50, minimum concentration that inhibited 50% of larval settlement ([2]; plantigrades, 15 h, 18 °C): 8.4 µg/mL |
